Experimental data: US20100028360A1, “METHODS FOR THE MODULATION OF BRAIN PROGESTAGEN SIGNALING IN THE PREVENTION AND TREATMENT OF NEUROLOGICAL DISORDERS AND NEURODEGENERATIVE DISEASES” (priority 2008, published 2010)
“Also recorded” adds a separate entry of the source. No end group written: not given here.

Experiments:
hESC [1] = assay: hESC cell proliferation, trypan blue assay; assay type: cell-based, human; conditions: E2 10 nM, P4 2 μM or E2+P4, 6 d; compared to untreated control cells
Protocol: (§1) FIG. 1. P4 differentiates hESC into neuroectoderm. (a) hESC were grown in TESR1 media—Li in the presence of E2 (10 nM), P4 (2 μM) or E2 (10 nM)+P4 (2 μM) for 6 d and cell proliferation measured using the trypan blue assay. Results are expressed as mean±SEM, n=3 (*p<0.05, **p<0.005 compared to 6 d control). (b) Equal amounts of protein from cell lysates of hESC treated for 9 d as described above were analyzed by immunoblot using a monoclonal antibody against nestin (clone 10C2; Chemicon, Calif., USA). (c) hESC were cultured for 4 d, enzymatically lifted and placed into EB media (containing serum) and rocked gently for an additional 4 d prior to being placed in one of two neural induction medias for an additional 11 days, where P4 was either absence or present. During this transition from EB to rosettes, colony structures treated with P4 also were treated with a PR antagonist (RU-486; 20 μM) or ER antagonist (ICI 182,780) for 11 d. At 19 d, morphological observation and molecular analysis were performed. […] (ii) hESC structure in the absence of P4. (iii) PR antagonist treated rosettes (RU-486, 20 μM). (iv) ER antagonist (ICI 182,780). (d) Equal amounts of protein from cell lysates of the above structures were analyzed by immunoblot with the monoclonal antibody against human nestin.

nestin = nestin immunoblot of hESC / EB-rosette structure lysates; assay type: cell-based, human
Protocol: as §1

hESC [2] = assay: EB and neuroectodermal rosette/NPC formation from hESC, morphological observation; assay type: cell-based, human; conditions: neural induction media with P4, antagonist for 11 d (RU-486 20 μM); observed at 19 d
Protocol: as §1

[3] = system: Tg2576 mice carrying the Swedish AβPP mutation; conditions: aged Tg2576 transgenic mice; cited from earlier work
rat hippocampal slices = assay: extracellular field responses in CA1 of isolated hippocampal slices; assay type: cell-based; conditions: 50 nM
Protocol: FIG. 3. GnRH1 increases neuronal excitability in hippocampal slices from old rats. Typical traces from hippocampal slice cut transversely at 500 μm thickness from 37 day (A) and 19 month (B) old male rats. Orthodromic extracellular field responses were recorded in the cell body layer of the CA1. Responses were evoked by a bipolar electrode with a constant current stimuli (50 μs duration) delivered every 30 s by electrodes placed in the schaeffer collaterals. 50 nM GnRH1 was used. Mean values are shown in C., n=5 slices each for young rats and n=3 slices each for old rats. Slices from two young and two old animals were used. Superfusion of human GnRH evoked a 50% increase in the maximum amplitude of population spikes in hippocampal slices from old rats compared to controls (FIGS. 3B, C).

Molecule: C[C@]12CC[C@@H]3c4ccc(O)cc4CC[C@H]3[C@@H]1CC[C@@H]2O [E2, estradiol]
- decrease in the rate of hESC proliferation (hESC [1]): 16%

Molecule: C[C@]12CC[C@@H]3c4ccc(O)cc4C[C@@H](CCCCCCCCC[S+]([O-])CCCC(F)(F)C(F)(F)F)[C@H]3[C@@H]1CC[C@@H]2O (stereo partly drawn) [ICI 182,780]
- nestin expression in antagonist treated structures (nestin; antagonist for 11 d (RU-486 20 μM), immunoblot at 19 d): absence of nestin
- EB and neuroectodermal rosette/NPC formation (hESC [2]): No rosettes were detected

Molecule: CC(=O)[C@H]1CC[C@H]2[C@@H]3CCC4=CC(=O)CC[C@]4(C)[C@H]3CC[C@]12C [P4, pregn-4-ene-3,20-dione]
- decrease in the rate of hESC proliferation (hESC [1]): 29%
- nestin expression in hESC (nestin; hESC treated for 9 d, E2 10 nM, P4 2 μM, immunoblot): increased the expression of the neuroectodermal marker nestin; also recorded: induces nestin expression
- EB and neuroectodermal rosette/NPC formation (hESC [2]): a minimum of three rosette structures

Molecule: CCNC(=O)[C@@H]1CCCN1C(=O)[C@H](CCCNC(=N)N)NC(=O)[C@H](CC(C)C)NC(=O)[C@@H](CC(C)C)NC(=O)[C@H](Cc1ccc(O)cc1)NC(=O)[C@H](CO)NC(=O)[C@H](Cc1c[nH]c2ccccc12)NC(=O)[C@H](Cc1c[nH]cn1)NC(=O)[C@@H]1CCC(=O)N1 [leuprolide acetate]
- Aβ deposition [3]: halts Aβ deposition
- cognitive performance [3]: improves cognitive performance

Molecule: GnRH1: human gonadotropin releasing hormone, superfused at 50 nM (QHWSYGLRPG; ends and bridges not checked; UniProt P01148 24-33, looked up)
- increase in the maximum amplitude of population spikes compared to controls (rat hippocampal slices; hippocampal slices from old (19 month old) rats): 50%
- increase in neuronal excitability compared to controls (rat hippocampal slices; hippocampal slices from young (37 day old) rats): 22%
- maximum amplitude of field responses, cell body layer of CA1 (rat hippocampal slices; old rats, n=3, control 2.54±0.18 mV, p=0.05): 3.99±0.84 mV
- maximum amplitude of field responses, cell body layer of CA1 (rat hippocampal slices; young rats, n=5, control 7.0±1.4 mV, p=0.548): 7.9±2.7 mV
